Article PMC12467382, “Synthesis and Bioevaluation of Chalcones as Broad-Spectrum Antiviral Compounds Against Single-Stranded RNA Viruses” (Biomolecules, 2025)
Where “and” joins values, the source holds several entries; their conditions need not be identical. Identical values can stand only once.

Legend:
Hs27 cells = experiment: 48 h MTS growth inhibition assay in Hs27 cells; assay type: cell-based, human; settings: for EC50: Homo sapiens, HS27, 48 h, read-out: Hs27 48 h EC50; for Hs27 48 h EC10: highest concentration giving 90% relative new cell growth after 48 h, 0.5% DMSO
Experimental: A cell growth assay using the MTS reagent was conducted to assess the general toxicity of each chalcone compound. […] Experiments were conducted in triplicate. In a typical experiment, there are two plates. The first is the control plate, which allows one to assess the starting cell population on the day of drug addition (Day 0). The second plate is the test plate where cells are plated and tested with different drug concentrations on Day 0. For example, either CHO cells or Hs27 cells were plated in a 200 µL volume at 1000 cells/well on both the control and test plates and incubated overnight to allow the cells to adhere. On Day 0, 1 μL of PBS was added to the control plate wells so that their total volume was 201 μL. MTS reagent (Promega Cell Titer 96 Aqueous non-radioactive cell proliferation reagent, Promega, Madison, WI, USA) was added (20 μL) to each well on the control plate, and that plate was incubated for 4 h in a 5% CO2 atmosphere at 37 °C and then read on the plate reader.
On Day 0, 1 μL of a 200× stock solution of each chalcone was added to the respected well on the test plate, and each condition was tested in triplicate. Drug solutions were prepared in advance in 100% DMSO and dosed so that the final DMSO concentration was 0.5%. For example, 1 μL of chalcone solution was added to the cells plated in each well in 200 μL of media. Of note, the respective chalcone addition occurred after an initial overnight incubation of each cell line in each well to reach Day 0 (the drugging day). After the chalcone was added, the cells were incubated in 5% CO2 for 48 h at 37 °C. After 48 h, the MTS reagent (Promega, Madison, WI, USA) was added (20 μL), and the test plates were incubated for an additional 4 h, and then, absorbance at 490 nm was measured on a BioTek Synergy MX plate reader. […] IC50 values were determined from the corresponding plot of relative absorbance at 490 nm vs. the drug concentration.
For highly colored materials like the chalcones, it is important to consider the contribution of the compound’s own absorbance to the MTS assay. To correct for the absorbance contribution of the chalcone itself, we measured each chalcone’s absorbance (Chalcone Abs) at 490 nm at the respective concentration (e.g., 10 µM) and subtracted the absorbance of the media background (blank Abs). This net value was then subtracted out of the Day 2 absorbance value to provide the % relative growth via the following equation:(1) % Relative Growth = (Day 2 Abs−Day 2 blank Abs)−Chalcone Abs−blank Abs−(Day 0 Abs−Day 0 blank Abs)/(Day 2 Control Abs −Day 2 blank Abs)−(Day 0 Abs−Day 0 blank Abs) ×100%
With the chalcones in hand, we then evaluated their growth-inhibition properties in Chinese hamster ovary (CHO-K1) cells and human Hs27 fibroblast cells.

PIV5-GFP = PIV5-GFP viral GFP expression in Hs27 cells by flow cytometry; assay type: cell-based, parainfluenza virus 5; settings: for Ability to reduce viral GFP expression (Figure 4B screen): 10 µM chalcone before and after infection; for Inhibition of GFP expression, pre-infection treatment only: 10 µM for 24 h before infection, media lacking chalcone after; for % GFP relative to DMSO treated (10 µM): Hs27 cells infected with PIV5-GFP; for GFP-positive cells, chalcone added at 0 or 6 hpi: 10 µM added at 0 (or 6) hpi, DMSO ~80%; for Effect on number of GFP-positive cells, chalcone added at 18 hpi: 10 µM added at 18 hpi; for GFP-positive cells: 10 µM chalcone 24 h before infection and after, DMSO control ~80-82% GFP+; for GFP-positive cells, virus spread, chalcone added at 0 and 24 hpi: 10 µM added at 0 and 24 hpi, DMSO nearly 60%; for Inhibition of virus spread, chalcone added at 48 and 72 hpi: 10 µM added at 48 and 72 hpi
Experimental: Parainfluenza virus 5 (PIV5) expressing green fluorescence protein (GFP) was derived from cDNA, grown at 37 °C in Madin–Darby bovine kidney (MDBK) cells and titered on CV-1 (African green monkey kidney) cells with a fibroblast morphology as previously described. MDBK and CV-1 cells were the kind gift of Dr. Robert Lamb (Northwestern University). Cells were infected with virus diluted in DMEM supplemented with 10% bovine serum albumin (BSA) for 1 h or mock infected with media alone. Following incubation, cells were washed with phosphate-buffered saline (PBS) and cultured in DMEM supplemented with 2% heat-inactivated (HI) FBS.
Chalcone treatments were performed in DMEM supplemented with 10% HI FBS at the indicated concentrations and for indicated periods of time. Chalcone stocks were reconstituted in 100% dimethyl sulfoxide (DMSO) at a concentration of 10 mM and were serially diluted to working concentrations in DMSO. DMSO control treatments to test the effect of the vehicle were performed at volumes corresponding to the volume of chalcone added during each experiment (i.e., 1 µL chalcone DMSO solution/1 mL DMEM [10 µM] utilized alongside the DMSO control of 1 µL/1 mL DMEM). For cytotoxicity assays, untreated controls were subtracted from DMSO and chalcone sample values to account for the background signal.
For cytotoxicity assays, cells were stained with propidium iodide (PI) at a dilution of 1:100. Cell viability was determined via flow cytometry using the CytoFLEX (Beckman Coulter, Brea, CA, USA). CytExpert software (Beckman Coulter, version 2.4) was used to analyze independent events. PIV5 infection was monitored using flow cytometry via the FITC channel by analyzing GFP expression of individual cells. ZIKV infection was monitored utilizing Flavivirus group antigen–antibody (D1-4G2-4-15; Novus Biologicals, Littleton, CO, USA) staining for the ZIKV envelope protein. Cells were fixed and permeabilized using eBioscience Intracellular Fixation and Permeabilization Buffer (Invitrogen, Thermo Fisher Scientific, MA, USA) according to the manufacturer’s instructions. Secondary staining was performed using an anti-Alexa Fluor 488 (AF488) antibody (Invitrogen, Thermo Fisher Scientific, MA, USA). OC43 infection was monitored utilizing a primary antibody targeted toward the OC43 nucleocapsid protein (NP, MAB9013, Sigma-Aldrich, St. Louis, MO, USA). Secondary staining was performed using an AF488 antibody. Cells were fixed and permeabilized as previously described. LACV infection was monitored utilizing an anti-LACV Gc 807.31ab antibody kindly provided by Andrew Pekosv. Secondary staining was performed using an AF488 antibody. Cells were fixed and permeabilized as previously described.
To measure the effect of chalcone treatment on PIV5 virus growth, Hs27 cells were infected with PIV5-GFP. This engineered negative sense single-stranded RNA virus expresses GFP, which serves as a genome-encoded protein readout. After entering a cell, PIV5 must first undergo primary transcription to convert its genome into mRNA. As genome replication begins, nascent genomes then become templates for further conversion to mRNA and viral gene expression becomes amplified in a process called secondary transcription. For viral proteins to be detectable in cell culture, this amplification must first take place, making the expression of GFP a direct indicator of whether secondary transcription has successfully occurred. […] As shown in the representative data in Figure 4A, ~82% of DMSO-treated PIV5-GFP infected cells were positive for GFP expression. This was reduced to ~2% GFP-positive cells after treatment with 8o. […] These chalcones were therefore selected for further screening for cytotoxicity.
The GFP IC50 was defined as the concentration of chalcone required to inhibit the GFP expression (as measured via flow cytometry) by 50% when compared to DMSO-treated cells. […]

[1] = low MOI (0.1 in Figure 7), read at 96 hpi

Row | SMILES | EC50 (Hs27 cells) [µM] | Hs27 48 h EC10 (Hs27 cells) [µM] | Ability to reduce viral GFP expression (Figure 4B screen) (PIV5-GFP; MOI 10, 24 hpi) | Inhibition of GFP expression, pre-infection treatment only (PIV5-GFP; MOI 10, 24 hpi) | also measured
1 | COc1ccc(Br)cc1/C=C/C(=O)c1c(O)cccc1OCCC(C)C [Chalcone 8s, (2E)-3-(5-Bromo-2-Methoxy-Phenyl)-1-[2-Hydroxy-6-(3-Methyl-Butoxy)-Phenyl]-Propenone] | 13.9 ± 0.5 | 6.9 ± 0.6 | most notable performance | – | –
2 | COc1ccccc1/C=C/C(=O)c1ccccc1O [Chalcone 8a] | 20.3 ± 2.1 | 0.6 ± 0.04 | – | no significant inhibition of GFP expression | GFP-positive cells regardless of time of addition (PIV5-GFP; 10 µM added at 0, 6 or 18 hpi, MOI 10, read at 42 hpi): ~ 80%; Inhibition of viral gene expression, PIV5 (PIV5-GFP; 10 µM, Hs27 cells): did not inhibit viral gene expression; GFP-positive cells with increasing concentration (PIV5-GFP; 2.5, 5, 7.5 or 10 µM before and after infection, MOI 10, 24 hpi): ~ 80%; Effect on number of GFP-positive cells, virus spread, all times of addition (PIV5-GFP; low MOI (0.1 in Figure 7), 10 µM added at 0, 24, 48 or 72 hpi, read at 96 hpi): modestly reduced
3 | CCOc1ccc(Br)cc1/C=C/C(=O)c1c(O)cccc1OCc1ccc(-c2ccccc2)cc1 [Chalcone 8v, (2E)-1-[2-(Biphenyl-4-Ylmethoxy)-6-Hydroxy-Phenyl]3-(5-Bromo-2-Ethoxy-Phenyl)-Propenone] | 18.4 ± 0.9 | 3.4 ± 0.2 | – | – | % GFP relative to DMSO treated (10 µM) (PIV5-GFP; 10 µM): 63.3%
4 | COc1ccc(Br)cc1/C=C/C(=O)c1c(O)cccc1OCc1ccccc1 [Chalcone 8l] | 7.8 ± 0.6 | 6.1 ± 0.5 | most notable performance | – | –
5 | COc1cc(/C=C/C(=O)c2c(O)cccc2OCc2ccccc2)cc(OC)c1OC [Chalcone 8z, (2E)-1-(2-Benzloxy-6-Hydroxy-Phenyl)-3-(3,4,5-Trimethoxy-Phenyl)-Propenone] | 5 ± 0.2 | 4.0 ± 0.2 | most notable performance | – | –
6 | COc1ccc(Br)cc1/C=C/C(=O)c1c(O)cccc1OCc1ccc(-c2ccccc2)cc1 [Chalcone 8w, (2E)-1-[2-(Biphenyl-4-Ylmethoxy)-6-Hydroxy-Phenyl]3-(5-Bromo-2-Methoxy-Phenyl)-Propenone] | 8.2 ± 0.5 | 6.5 ± 0.5 | most notable performance | – | –
7 | COc1ccc(O)cc1/C=C/C(=O)c1c(O)cccc1OCc1ccccc1 [Chalcone 8x, (2E)-1-(2-Benzloxy-6-Hydroxy-Phenyl)-5-(5-Hydroxy-2-Methoxy-Phenyl)-Propenone] | 3.4 ± 0.3 | 1.1 ± 0.07 | most notable performance | – | –
8 | CCOc1ccc(Cl)cc1/C=C/C(=O)c1c(O)cccc1OCc1ccccc1 [Chalcone 8p] | 19.3 ± 1.9 | 8.7 ± 0.7 | most notable performance | no significant inhibition of GFP expression | GFP-positive cells, chalcone added at 0 or 6 hpi (PIV5-GFP; MOI 10, read at 42 hpi): ~25%; Effect on number of GFP-positive cells, chalcone added at 18 hpi (PIV5-GFP; MOI 10, read at 42 hpi): no significant effect; GFP-positive cells (PIV5-GFP; MOI 10, 24 hpi): < 10%; GFP-positive cells, virus spread, chalcone added at 0 and 24 hpi (PIV5-GFP; [1]): less than 10%; Inhibition of virus spread, chalcone added at 48 and 72 hpi (PIV5-GFP; [1]): inhibition was not seen
9 | CCOc1ccc(Br)cc1/C=C/C(=O)c1c(O)cccc1OCc1ccccc1 [Chalcone 8o] | 13.3 ± 1.1 | 8.3 ± 0.5 | most notable performance | no significant inhibition of GFP expression | GFP-positive cells, chalcone added at 0 or 6 hpi (PIV5-GFP; MOI 10, read at 42 hpi): ~25%; Effect on number of GFP-positive cells, chalcone added at 18 hpi (PIV5-GFP; MOI 10, read at 42 hpi): no significant effect; GFP-positive cells (PIV5-GFP; MOI 10, 24 hpi): ~ 2% and 2.10% and < 10%; % GFP relative to DMSO treated (10 µM) (PIV5-GFP; 10 µM): 14.6%; GFP-positive cells, virus spread, chalcone added at 0 and 24 hpi (PIV5-GFP; [1]): less than 10%; Inhibition of virus spread, chalcone added at 48 and 72 hpi (PIV5-GFP; [1]): inhibition was not seen
10 | COc1ccc(Br)cc1/C=C/C(=O)c1c(O)cccc1OC [Chalcone 8f] | 2.3 ± 0.2 | 1.4 ± 0.1 | most notable performance | – | –
